In US20250115620A1, “BRIDGED TRICYCLIC CARBAMOYLPYRIDONE COMPOUNDS AND USES THEREOF” (Gilead Sciences, Inc., priority 2022, published 2025):
Like-named read-outs stand apart in the source and are kept apart here.

What was measured:
HIV-1 (IIIB) = assay: microbe, parasite or virus in culture; type: cell-based; details: Human immunodeficiency virus 1, IIIB, MT4, 120 h, HIV-1 (IIIB) in MT-4 cells, 5 days incubation, Cell Titer Glo; read-out: MT4 EC50
pLAI reporter virus = assay: microbe, parasite or virus in culture; type: cell-based, HIV; details: Human immunodeficiency virus 1, MT4, 72 h
in vitro = details: human, uninfected MT-4 cells
Description: Compounds were serially diluted (1:3) in DMSO on 384-well polypropylene plates and further diluted 200-fold into complete RPMI media (10% FBS, 1% P/S) using the Biotek Micro Flow and Labcyte ECHO acoustic dispenser. […] Infected and uninfected MT-4 cells were further diluted in complete RPMI media and added to each plate using a Micro Flow dispenser. After 5 days incubation in a humidified and temperature controlled incubator (37° C.), Cell Titer Glo (Promega) was added to the assay plates and chemiluminescence read using an Envision plate-reader.
Assays were performed as above except uninfected MT-4 cells were added to each well containing test compound. In addition, 10 μM puromycin was added to the last column of each assay plate to assess a base level of cytotoxicity.

SMILES | EC50 (HIV-1 (IIIB)) [nM] | EC50 (pLAI reporter virus; read-out: RLUC 50% HS EC50) [nM] | EC50 (pLAI reporter virus; read-out: RLUC CCM EC50) [nM] | CC50 at 5 days (in vitro) [nM]
CC1=NO[C@]2(CC[C@H](C)N3C[C@H]2n2cc(C(=O)NCc4ccc(F)cc4F)c(=O)c(O)c2C3=O)C1O (stereo partly drawn) [Example 24, (3′S,5S,7′R)—N-(2,4-difluorobenzyl)-4,12′-dihydroxy-3,3′-dimethyl-1′,11′-dioxo-1′,4′,5′,11′-tetrahydro-3′H,4H,7′H-spiro[isoxazole-5,6′-[2,7]methanopyrido[1,2-a][1,4]diazonine]-10′-carboxamide] | 5.9 | 4.9 | 2.8 | ≥ 50000
CC1=NO[C@]2(CC[C@H](C)N3C[C@H]2n2cc(C(=O)NCc4ccc(F)cc4F)c(=O)c(O)c2C3=O)C1=O [Example 25, (3′S,5S,7′R)—N-(2,4-difluorobenzyl)-12′-hydroxy-3,3′-dimethyl-1′,4,11′-trioxo-1′,4′,5′,11′-tetrahydro-3′H,4H,7′H-spiro[isoxazole-5,6′-[2,7]methanopyrido[1,2-a][1,4]diazonine]-10′-carboxamide] | ≥ 100 | 58.1 | 34 | ≥ 50000
CC1=NO[C@@]2(CC[C@H](C)N3C[C@H]2n2cc(C(=O)NCc4ccc(F)cc4F)c(=O)c(O)c2C3=O)[C@H]1C [Example 26, (3′S,4S,5S,7′R)—N-(2,4-difluorobenzyl)-12′-hydroxy-3,3′,4-trimethyl-1′,11′-dioxo-1′,4′,5′,11′-tetrahydro-3′H,4H,7′H-spiro[isoxazole-5,6′-[2,7]methanopyrido[1,2-a][1,4]diazonine]-10′-carboxamide] | 0.5 | 9.5 | 0.3 | 13000
CC1=NO[C@@]2(CC[C@H](C)N3C[C@H]2n2cc(C(=O)NCc4ccc(F)cc4F)c(=O)c(O)c2C3=O)[C@H]1O [Example 28, (3′S,4S,5R,7′R)—N-(2,4-difluorobenzyl)-4,12′-dihydroxy-3,3′-dimethyl-1′,11′-dioxo-1′,4′,5′,11′-tetrahydro-3′H,4H,7′H-spiro[isoxazole-5,6′-[2,7]methanopyrido[1,2-a][1,4]diazonine]-10′-carboxamide] | 0.9 | 51.5 | 0.4 | 47000
CC1=NO[C@@]2(CC[C@H](C)N3C[C@H]2n2cc(C(=O)NCc4ccc(F)cc4F)c(=O)c(O)c2C3=O)C1=O [Example 29, (3′S,5R,7′R)—N-(2,4-difluorobenzyl)-12′-hydroxy-3,3′-dimethyl-1′,4,11′-trioxo-1′,4′,5′,11′-tetrahydro-3′H,4H,7′H-spiro[isoxazole-5,6′-[2,7]methanopyrido[1,2-a][1,4]diazonine]-10′-carboxamide] | 1.7 | 168 | 0.8 | ≥ 50000
CC1=NO[C@@]2(CC[C@H](C)N3C[C@H]2n2cc(C(=O)NCc4ccc(F)cc4F)c(=O)c(O)c2C3=O)[C@@H]1O [Example 30, (3′S,4R,5R,7′R)—N-(2,4-difluorobenzyl)-4,12′-dihydroxy-3,3′-dimethyl-1′,11′-dioxo-1′,4′,5′,11′-tetrahydro-3′H,4H,7′H-spiro[isoxazole-5,6′-[2,7]methanopyrido[1,2-a][1,4]diazonine]-10′-carboxamide] | 1.2 | 79.4 | 0.5 | 40000
CC1=NO[C@@]2(CC[C@H](C)N3C[C@H]2n2cc(C(=O)NCc4c(F)cc(F)cc4F)c(=O)c(O)c2C3=O)[C@H]1O [Example 31, (3′S,4S,5R,7′R)-4,12′-dihydroxy-3,3′-dimethyl-1′,11′-dioxo-N-(2,4,6-trifluorobenzyl)-1′,4′,5′,11′-tetrahydro-3′H,4H,7′H-spiro[isoxazole-5,6′-[2,7]methanopyrido[1,2-a][1,4]diazonine]-10′-carboxamide] | 1.4 | 47.2 | 0.3 | 30000
CC1=NO[C@@]2(CC[C@H](C)N3C[C@H]2n2cc(C(=O)NCc4c(F)cc(F)cc4F)c(=O)c(O)c2C3=O)[C@H]1F [Example 32, (3′S,4S,5R,7′R)-4-fluoro-12′-hydroxy-3,3′-dimethyl-1′,11′-dioxo-N-(2,4,6-trifluorobenzyl)-1′,4′,5′,11′-tetrahydro-3′H,4H,7′H-spiro[isoxazole-5,6′-[2,7]methanopyrido[1,2-a][1,4]diazonine]-10′-carboxamide] | 1.5 | 261 | 0.4 | 21200
CC1=NO[C@@]2(CC[C@H](C)N3C[C@H]2n2cc(C(=O)NCc4c(F)cc(F)cc4F)c(=O)c(O)c2C3=O)[C@@H]1F [Example 33, (3′S,4R,5R,7′R)-4-fluoro-12′-hydroxy-3,3′-dimethyl-1′,11′-dioxo-N-(2,4,6-trifluorobenzyl)-1′,4′,5′,11′-tetrahydro-3′H,4H,7′H-spiro[isoxazole-5,6′-[2,7]methanopyrido[1,2-a][1,4]diazonine]-10′-carboxamide] | 0.7 | 342 | 0.4 | 14100
CC1=NO[C@@]2(CC[C@H](C)N3C[C@H]2n2cc(C(=O)NCc4ccc(F)c(Cl)c4F)c(=O)c(O)c2C3=O)[C@H]1C [Example 34, (3′S,4S,5S,7′R)—N-(3-chloro-2,4-difluorobenzyl)-12′-hydroxy-3,3′,4-trimethyl-1′,11′-dioxo-1′,4′,5′,11′-tetrahydro-3′H,4H,7′H-spiro[isoxazole-5,6′-[2,7]methanopyrido[1,2-a][1,4]diazonine]-10′-carboxamide] | 0.6 | 76.7 | 0.2 | 13600
CC1=NO[C@@]2(CC[C@H](C)N3C[C@H]2n2cc(C(=O)NCc4ccc(F)c(Cl)c4F)c(=O)c(O)c2C3=O)[C@H]1O [Example 35, (3′S,4S,5R,7′R)—N-(3-chloro-2,4-difluorobenzyl)-4,12′-dihydroxy-3,3′-dimethyl-1′,11′-dioxo-1′,4′,5′,11′-tetrahydro-3′H,4H,7′H-spiro[isoxazole-5,6′-[2,7]methanopyrido[1,2-a][1,4]diazonine]-10′-carboxamide] | 0.9 | 102 | 0.3 | 20300
COC1=NO[C@@]2(CC[C@H](C)N3C[C@H]2n2cc(C(=O)NCc4c(F)cc(F)cc4F)c(=O)c(O)c2C3=O)C1 [Example 36, (3′S,5S,7′R)-12′-hydroxy-3-methoxy-3′-methyl-1′,11′-dioxo-N-(2,4,6-trifluorobenzyl)-1′,4′,5′,11′-tetrahydro-3′H,4H,7′H-spiro[isoxazole-5,6′-[2,7]methanopyrido[1,2-a][1,4]diazonine]-10′-carboxamide] | 0.7 | 27.6 | 0.2 | 19500
COC1=NO[C@]2(CC[C@H](C)N3C[C@H]2n2cc(C(=O)NCc4c(F)cc(F)cc4F)c(=O)c(O)c2C3=O)C1 [Example 37, (3′S,5R,7′R)-12′-hydroxy-3-methoxy-3′-methyl-1′,11′-dioxo-N-(2,4,6-trifluorobenzyl)-1′,4′,5′,11′-tetrahydro-3′H,4H,7′H-spiro[isoxazole-5,6′-[2,7]methanopyrido[1,2-a][1,4]diazonine]-10′-carboxamide] | 1.6 | 8.3 | 0.7 | 49900
COCCOC1=NO[C@@]2(CC[C@H](C)N3C[C@H]2n2cc(C(=O)NCc4c(F)cc(F)cc4F)c(=O)c(O)c2C3=O)C1 [Example 38, (3′S,5S,7′R)-12′-hydroxy-3-(2-methoxyethoxy)-3′-methyl-1′,11′-dioxo-N-(2,4,6-trifluorobenzyl)-1′,4′,5′,11′-tetrahydro-3′H,4H,7′H-spiro[isoxazole-5,6′-[2,7]methanopyrido[1,2-a][1,4]diazonine]-10′-carboxamide] | 1.2 | 1.5 | 0.3 | 22100
[2H]C([2H])([2H])OC1=NO[C@@]2(CC[C@H](C)N3C[C@H]2n2cc(C(=O)NCc4c(F)cc(F)cc4F)c(=O)c(O)c2C3=O)C1([2H])[2H] [Example 39, (3′S,5S,7′R)-12′-hydroxy-3-(methoxy-d3)-3′-methyl-1′,11′-dioxo-N-(2,4,6-trifluorobenzyl)-1′,4′,5′,11′-tetrahydro-3′H,4H,7′H-spiro[isoxazole-5,6′-[2,7]methanopyrido[1,2-a][1,4]diazonine]-4,4-d2-10′-carboxamide] | 1 | 35.4 | 0.3 | 23500
COCCOC1=NO[C@@]2(CC[C@H](C)N3C[C@H]2n2cc(C(=O)NCc4ccc(F)cc4F)c(=O)c(O)c2C3=O)C1 [Example 41, (3′S,5S,7′R)—N-(2,4-difluorobenzyl)-12′-hydroxy-3-(2-methoxyethoxy)-3′-methyl-1′,11′-dioxo-1′,4′,5′,11′-tetrahydro-3′H,4H,7′H-spiro[isoxazole-5,6′-[2,7]methanopyrido[1,2-a][1,4]diazonine]-10′-carboxamide] | 0.6 | 0.5 | 0.4 | 21500
C[C@H]1CC[C@]2(CC(C#N)=NO2)[C@H]2CN1C(=O)c1c(O)c(=O)c(C(=O)NCc3ccc(F)cc3F)cn12 [Example 42, (3′S,5S,7′R)-3-cyano-N-(2,4-difluorobenzyl)-12′-hydroxy-3′-methyl-1′,11′-dioxo-1′,4′,5′,11′-tetrahydro-3′H,4H,7′H-spiro[isoxazole-5,6′-[2,7]methanopyrido[1,2-a][1,4]diazonine]-10′-carboxamide] | ≥ 100 | 550 | 157 | ≥ 50000
